Legend:
[1] = target: Human immunodeficiency virus type 1 reverse transcriptase (Human immunodeficiency virus 1, UniProt Q72547); experiment: Inhibition of recombinant HIV-1 reverse transcriptase p66/p51 incubated for 40 mins by picogreen dye based spectrofluorometric assay
[2] = Cytotoxicity against human MT4 cells assessed as reduction in cell viability incubated for 4 days by MTT assay; assay type: cell-based
[3] = tested on: Human immunodeficiency virus 1; experiment: Antiviral activity against HIV-1 harboring reverse transcriptase L100I mutant infected in human MT4 cells assessed as reduction in virus-induced cytopathic effect incubated for 4 days by MTT assay; assay type: functional, organism-based; details: Human immunodeficiency virus 1, MT4, 96 h
[4] = tested on: Human immunodeficiency virus 1; experiment: Antiviral activity against HIV-1 harboring reverse transcriptase K103N mutant infected in human MT4 cells assessed as reduction in virus-induced cytopathic effect incubated for 4 days by MTT assay; assay type: functional, organism-based; details: Human immunodeficiency virus 1, MT4, 96 h
[5] = tested on: Human immunodeficiency virus 1; experiment: Antiviral activity against HIV-1 harboring reverse transcriptase Y181C mutant infected in human MT4 cells assessed as reduction in virus-induced cytopathic effect incubated for 4 days by MTT assay; assay type: functional, organism-based; details: Human immunodeficiency virus 1, MT4, 96 h
[6] = tested on: Human immunodeficiency virus 1; experiment: Antiviral activity against HIV-1 harboring reverse transcriptase E138K mutant infected in human MT4 cells assessed as reduction in virus-induced cytopathic effect incubated for 4 days by MTT assay; assay type: functional, organism-based; details: Human immunodeficiency virus 1, MT4, 96 h

Row | IC50 [1] | SMILES | CC50 at 96 h [2] | also measured
1 | 42 nM | Cc1cc(-c2ccc(Oc3nc(Nc4ccc(C#N)cc4)nc4ccsc34)cc2C)ccc1C#N |  | 
2 | 62 nM | Cc1cc(-c2ccc(C#N)cc2F)ccc1Oc1nc(Nc2ccc(C#N)cc2)nc2ccsc12 |  | 
3 | 31 nM | N#Cc1ccc(Nc2nc(Oc3ccc(-c4ccc(C#N)c(Cl)c4)cc3Cl)c3sccc3n2)cc1 |  | 
4 | 27 nM | Cc1cc(C#N)ccc1-c1ccc(Oc2nc(Nc3ccc(C#N)cc3)nc3ccsc23)cc1C |  | 

The remaining lines, values behind:

Row | SMILES | IC50 [1] | CC50 at 96 h [2] | also measured
5 | N#Cc1ccc(Nc2nc(Oc3ccc(-c4ccc(C#N)cc4F)cc3)c3sccc3n2)cc1 | 65 nM |  | 
6 | O=C1Nc2ccc(Cl)cc2[C@@](C#CC2CC2)(C(F)(F)F)O1 [EFAVIRENZ] |  | > 6340 nM | 
7 | Cc1cc(C#N)cc(C)c1Oc1nc(Nc2ccc(C#N)cc2)nc(N)c1Br [ETRAVIRINE] |  | > 4610 nM | 
8 | Cc1ccnc2c1NC(=O)c1cccnc1N2C1CC1 [NEVIRAPINE] |  | > 15000 nM | EC50 [3]: 1990 nM; EC50 [4]: > 9550 nM; EC50 [5]: > 15000 nM; EC50 [6]: 200 nM
